Data published in ChEMBL document CHEMBL1201862, “PubChem BioAssay data set” (2004).
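A five-concentration, 48-hour dose response in 96-well plates underlies each endpoint, interpolated linearly between surrounding concentrations. At the GI50, growth is halved.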 Active and inactive are the calls of the source. No stated cut-off is given here; in the data, active = GI50 up to about 1.1 µM and inactive = higher.

What was measured:
Test in all cases: inhibition of tumour cell growth, NCI panel, 48 h
EKVX = test system: EKVX
OVCAR-3 = test system: OVCAR-3
T47D = test system: T47D
HOP-92 = test system: HOP-92
HCT-116 = test system: HCT-116
MOLT-4 = test system: MOLT-4
SF-268 = test system: SF-268
CCRF-CEM = test system: CCRF-CEM
UACC-257 = test system: UACC-257
DU-145 = test system: DU-145
HOP-62 = test system: HOP-62
A498 = test system: A498
HL-60 = test system: HL-60
RPMI-8226 = test system: RPMI-8226
786-0 = test system: 786-0
NCI/ADR-RES = test system: NCI/ADR-RES
SR = test system: SR
NCI-H522 = test system: NCI-H522
HCC 2998 = test system: HCC 2998
SNB-19 = test system: SNB-19

Measured: GI50

CCOC(=O)C1(C(=O)OCC)CC(=O)[C@@]2(C1)OCC[C@H]1OC(=O)C[C@H]12
inactive: EKVX > 100 µM | OVCAR-3 > 100 µM | T47D > 100 µM | HOP-92 > 100 µM | HCT-116 > 100 µM | MOLT-4 > 100 µM | SF-268 > 100 µM | CCRF-CEM > 100 µM | UACC-257 > 100 µM | DU-145 > 100 µM | HOP-62 > 100 µM | A498 > 100 µM | HL-60 > 100 µM | RPMI-8226 > 100 µM | 786-0 > 100 µM | NCI/ADR-RES > 100 µM | SR > 100 µM | NCI-H522 > 100 µM | HCC 2998 > 100 µM | SNB-19 > 100 µM
